What was measured:
S180 sarcoma = S180 sarcoma growth in mice; format: in vivo; settings: S180 sarcoma bearing mice; DS 30 mg/kg oral, CuCl2 3 mg/kg oral
Experimental: An S180 mouse sarcoma (FIGS. 6A-6C) and MDA-MB-231 breast cancer cells (1×10^6) (FIG. 6D-6F) were subcutaneously injected into the rare frank of BALB/c and CD1 Nu/Nu mice respectively (S180: n=5; MDA-MB-231: n=6).
Five-week-old female athymic CD1 nude mice used in this study were housed under pathogen-free conditions. Human MDA-MB-231 breast cancer or mouse S180 sarcoma cells (1×10^6) were injected s.c. at one flank of the mice. Tumour volume (V) was determined by the equation: V=(L×W^2)×0.5, where L is the length and W is the width of the tumour. When xenografts reached volumes of ˜200 mm^3, the mice showing tumours were randomly grouped for the following treatments. The first day of drug treatment was designated as day 1.
Five groups (5 mice/group) were set up for mice with S180 sarcoma: 1. control, No treatment; 2. […] DS, non-encapsulated DS 30 mg/kg dissolved in vegetable oil, oral administration; 5. DS/Cu: DS 30 mg/kg oral and CuCl2 3 mg/kg oral.
The animals were subjected to different treatments when their tumours reached 2 mm in diameter. The drugs were administrated on Monday, Wednesday and Friday for two successive weeks. […] For the combination treatment groups, CuCl2 were administered in the morning.

Stability in plasma = format: in vitro ADME; settings: after 25 hours
Stability in whole blood = format: in vitro ADME; settings: after 5 hours
[1] = cited from earlier work
breast cancer cell lines = test: MTT cytotoxicity assay in breast cancer cell lines; settings: CuCl2 (10 μM) containing medium, 72 hours
Experimental: After 72 hours, the viability of the treated cells was determined by MTT assay.
The viability was determined by MTT assay.
(§1) All cell lines were cultured in DMEM (Lonza, Wokingham, UK) supplemented with 10% FCS, 50 units/ml penicillin, 50 μg/ml streptomycin. For in vitro cytotoxicity assay, cells [5,000/well (10,000/well for MDA-MB-231PAC10)] were cultured overnight in 96-well flat-bottomed microtiter plates then exposed to drugs for 72 h and subjected to a standard MTT assay (Plumb J A, et al Cancer Res 1989; 49(16):4435-40).
The cells were then subjected to MTT analysis as described above.

MCF7 = test: MTT cytotoxicity assay, single drugs and combinations with Lipo-DS/Cu; format: cell-based; settings: Homo sapiens, MCF7, 72 h
Experimental: as §1
(§2) The cells were then subjected to MTT analysis as described above. […] The combination index (CI) was determined by mutually exclusive equations.

MDA-MB-231 = test: as above; format: cell-based; settings: Homo sapiens, MDA-MB-231, 72 h
Experimental: as §1, §2

T47D = test: as above; format: cell-based; settings: Homo sapiens, 72 h
Experimental: as §1, §2

| Structure (SMILES) | in vivo anticancer effect (S180 sarcoma) | remaining in plasma (Stability in plasma) | remaining in whole blood (Stability in whole blood) | blood concentration ([1]; after oral administration of a 500 mg dose) | half-life in the blood stream ([1]; degraded by glutathione reductase system in erythrocytes) [min] | cytotoxicity to BC cell lines (breast cancer cell lines) | IC50 (MCF7) [nM] | IC50 (MDA-MB-231) [nM] | IC50 (T47D) [nM] |
| --- | --- | --- | --- | --- | --- | --- | --- | --- | --- |
| CCN(CC)C(=S)SSC(=S)N(CC)CC [DS, disulfiram] | not detected | about 15% | about 10% | below the limit of detection | 4 | comparable cytotoxicity |  |  |  |
| COc1cccc2c1C(=O)c1c(O)c3c(c(O)c1C2=O)C[C@@](O)(C(=O)CO)C[C@@H]3O[C@H]1C[C@H](N)[C@H](O)[C@H](C)O1 [Dox alone, doxorubicin] |  |  |  |  |  |  | 440 | 178 | 160 |
| Nc1ccn([C@@H]2O[C@H](CO)[C@@H](O)C2(F)F)c(=O)n1 [GEM alone, gemcitabine] |  |  |  |  |  |  | 22.1 | 12.3 | 35 |
| CC(=O)O[C@H]1C(=O)[C@@]2(C)[C@H]([C@H](OC(=O)c3ccccc3)[C@]3(O)C[C@H](OC(=O)[C@H](O)[C@@H](NC(=O)c4ccccc4)c4ccccc4)C(C)=C1C3(C)C)[C@]1(OC(C)=O)CO[C@@H]1C[C@@H]2O [Pac alone, paclitaxel] |  |  |  |  |  |  | 4.3 | 9.3 | 2.6 |
